The values that follow are results of earlier work, collected in patent publication US8026262B2, “Chemical compounds” (GlaxoSmithKline LLC, priority 2006, dated 2011).

The test system of data set [1] is ovariectomized (OVX) rats.
Data set [2] deals with ORX rats.

Take `CN(C)[C@H]1C[C@@H](C(C)(C)CO)Nc2ccc([N+](=O)[O-])cc21` [Example S-40503]: in data set [1], the “periosteal mineral apposition rate of the femur” value is reported as “increase”. In data set [1] (2 month period), the “BMD of femoral cortical bone” value is recorded as “significantly increased” and the “biomechanical strength of femoral cortical bone” value was “significantly increased”. Besides, in data set [2] (4 weeks, as markedly as DHT), the “bone mineral density (BMD) of femur” value was “increased” and the “levator ani muscle weight” value is recorded as “increased”. Moreover, the prostate weight result in data set [2] (versus eugonadal rats, at any doses tested) is listed as “not elevated”.
As to estrogen, the “biomechanical strength of femoral cortical bone” value in data set [1] (2 month period) is reported as “did not”.
